Results: US20250295799A1, “ANTIBODY-DRUG CONJUGATES TARGETING GLYPICAN-3 AND METHODS OF USE” (Zymeworks BC Inc., priority 2022, published 2025)

Experiments:
[1] = system: JHH-5 cells (mid GPC3-expressing); test: Internalization by flow cytometry (quenched AF488); type: cell-based; settings: 5 nM, 24 h
Description: (§1) Cells were seeded at 50,000 cells/well in 48-well plates and incubated overnight under standard culturing conditions (37° C./5% CO2) Gibco™ William's E Medium, GlutaMAX™ Supplement (Thermo Fisher Scientific, Waltham, MA; Cat. No. 32551020) with 10% FBS (Thermo Fisher Scientific, Waltham, MA; Cat. No. 12483020). Coupled antibodies were added to cells the following day at 5 nM and incubated under standard culturing conditions for 24 hours to allow for internalization. Following incubation, cells were dissociated, washed, and surface AF488 fluorescence was quenched using an anti-AF488 antibody (Life Technologies, Carlsbad, CA; Cat. No. A-11094) at 100 nM for 30 minutes at 4° C. Quenched AF488 fluorescence (internalized fluorescence) was detected by flow cytometry on a BD LSRFortessa™ Cell Analyzer (BD Biosciences, Franklin Lake, NJ) with 1,000 minimum events collected per well.
Briefly, plasma stress was carried out by incubating M3-H18L6 LC-modified antibodies in mouse plasma (BioIVT, Westbury, NY; Cat. No. MSE00PL38NC-0103070) for 14 days in a 37° C./5% CO2 incubator. […] Following incubation and washing, fluorescence was detected by flow cytometry on a BD LSRFortessa™ Cell Analyzer (BD Biosciences, Franklin Lake, NJ) with 1,000 minimum events collected per well. […]

[2] = system: JHH-7 cells (high GPC3-expressing); test: Internalization by flow cytometry (quenched AF488); type: cell-based; settings: JHH-7; 5 nM; 24 h
Description: as §1, with “C./5% CO2) in Gibco™ Dulbecco's Modified Eagle Media (DMEM) (Thermo Fisher Scientific, Waltham, MA; Cat. No. 11995040) with 10% Fetal Bovine Serum (FBS) (Thermo Fisher Scientific, Waltham, MA; Cat. No. 12483020) for Hep G2 cells, and Gibco™ William's” for “C./5% CO2) Gibco™ William's”, “Cat. No. 12483020) for JHH-7 cells. Coupled antibodies” for “Cat. No. 12483020). Coupled antibodies”, “day at 10 nM or at 100 nM and” for “day at 5 nM and”, “conditions for 5-24 hours to” for “conditions for 24 hours to”
as §1, with “well. […]” for “well.”

palivizumab
internalization, in words [1]: minimal internalization | internalization, in words [2]: minimal internalization
